In patent US12459951B2, “Compounds that interact with RAS superfamily proteins for treatment of cancers, inflammatory diseases, rasopathies, and fibrotic disease” (SHY Therapeutics, LLC, priority 2022, dated 2025):

How the values were obtained:
cdc42 = target: T1, cdc42 (Homo sapiens, UniProt P60953); assay: Cdc42 GTP Binding Domain Inhibition Assay; conditions: read-out: Cdc42: % inh.
T1 construct: made in house
Outline: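 His-tagged cdc42 or Rheb (10–30 μg/mL) bound to nickel plates, then exposed to compound (20 μM, or serial dilutions for IC50) in 1% DMSO for 3 h at room temperature, ±Sos during final hour. Cy3- or Cy5-GTP (100 nM) added for 45 min; bound labelled GTP read by fluorescence after washes.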

JNK phosphorylation = assay: JNK Activation Assay (western blot), Panc-1; format: cell-based, human; conditions: at 10 μM, Panc-1 pancreatic cancer cell line; starred symbols = activation
Outline: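 KRas G12C Panc-1 cells treated 6 h at 37 °C with compound at 10 μM (0.3% DMSO), or serial dilutions for IC50. In Method 1 cells were serum-starved overnight (0.5% FBS) then stimulated with 1.5 ng/ml EGF for 15 min; Method 2 used 10% FBS without stimulation. Phospho-JNK (Thr183/Tyr185) measured by western blot.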

[1] = Kinetic Solubility Assay in pH 7.4 Buffer + 2% DMSO; format: physicochemical; conditions: phosphate-buffered saline pH 7.4 with 2% DMSO, aqueous buffer, kinetic from dmso stock, 25° C., two hours
Outline: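 Compound from 20 mM DMSO stock diluted to nominal 400 μM in PBS pH 7.4 with 2% DMSO, in duplicate, shaken 2 h at 25° C., then filtered. Filtrate quantified by UV absorbance (230-550 nm) against 10-200 μM calibration curves; effective range ~2-400 μM.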

T1 sequence (P60953 whole entry, the tested form may be a part): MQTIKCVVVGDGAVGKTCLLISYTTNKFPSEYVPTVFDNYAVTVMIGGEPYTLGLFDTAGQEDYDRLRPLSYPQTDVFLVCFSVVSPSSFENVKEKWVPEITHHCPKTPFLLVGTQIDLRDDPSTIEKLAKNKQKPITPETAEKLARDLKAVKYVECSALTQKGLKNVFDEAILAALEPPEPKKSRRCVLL

SMILES	inhibition at 20 µM (cdc42) [%]	solubility at 2 h [1] [µM]	% inh of JNK in Panc-1 (JNK phosphorylation)
COc1ccnc(Nc2nc(-c3nccn3C)nn3cc(-c4ccn(C(C)C)n4)c(C)c23)n1 [Compound 53, 6-(1-Isopropyl-1H-pyrazol-3-yl)-N-(4-methoxypyrimidin-2-yl)-5-methyl-2-(1-methyl-1H-imidazol-2-yl)pyrrolo[2,1-f][1,2,4]triazin-4-amine]	50 to 75	10 to 30	H* (H* ≥ 100% activation)
Cc1c(-c2ccn(C(C)C)n2)cn2nc(-c3nccn3C)nc(Nc3ccncn3)c12 [Compound 55, 6-(1-Isopropyl-1H-pyrazol-3-yl)-5-methyl-2-(1-methyl-1H-imidazol-2-yl)-N-(pyrimidin-4-yl)pyrrolo[2,1-f][1,2,4]triazin-4-amine]	50 to 75	10 to 30	H* (H* ≥ 100% activation)
COc1ccnc(Nc2nc(-c3nccn3C)nn3cc(-c4ccn(C(C)C)n4)c(C)c23)c1 [Compound 58, 6-(1-Isopropyl-1H-pyrazol-3-yl)-N-(4-methoxypyridin-2-yl)-5-methyl-2-(1-methyl-1H-imidazol-2-yl)pyrrolo[2,1-f][1,2,4]triazin-4-amine]	76 to 100	10 to 30	H* (H* ≥ 100% activation)
Cc1c(-c2ccn(C(C)C)n2)cn2nc(-c3nccn3C)nc(Nc3ccccn3)c12 [Compound 57, 6-(1-Isopropyl-1H-pyrazol-3-yl)-5-methyl-2-(1-methyl-1H-imidazol-2-yl)-N-(pyridin-2-yl)pyrrolo[2,1-f][1,2,4]triazin-4-amine]	76 to 100	10 to 30	H* (H* ≥ 100% activation)
COc1cc(-c2cn3nc(-c4nccn4C)nc(Nc4cc(OC)ncn4)c3c2C)ccn1 [Compound 50, 6-(2-Methoxypyridin-4-yl)-N-(6-methoxypyrimidin-4-yl)-5-methyl-2-(1-methyl-1H-imidazol-2-yl)pyrrolo[2,1-f][1,2,4]triazin-4-amine]	26 to 49	< 10	
Cc1c(-c2ccn(C(C)C)n2)cn2nc(-c3nccn3C)nc(Nc3nnco3)c12 [Compound 59, N-(6-(1-Isopropyl-1H-pyrazol-3-yl)-5-methyl-2-(1-methyl-1H-imidazol-2-yl)pyrrolo[2,1-f][1,2,4]triazin-4-yl)-1,3,4-oxadiazol-2-amine]	50 to 75	< 10	H* (H* ≥ 100% activation)
Cc1c(-c2ccn(C(C)C)n2)cn2nc(-c3nccn3C)nc(Nc3ncccn3)c12 [Compound 54, 6-(1-Isopropyl-1H-pyrazol-3-yl)-5-methyl-2-(1-methyl-1H-imidazol-2-yl)-N-(pyrimidin-2-yl)pyrrolo[2,1-f][1,2,4]triazin-4-amine]	50 to 75	< 10	H* (H* ≥ 100% activation)

More lines, main results first:

inhibition at 20 µM (cdc42) [%]	solubility at 2 h [1] [µM]	SMILES	% inh of JNK in Panc-1 (JNK phosphorylation)
1 to 25	< 10	Cc1c(-c2ccn(C(C)C)n2)cn2nc(-c3nccn3C)nc(Nc3cnccn3)c12 [Compound 62, 6-(1-Isopropyl-1H-pyrazol-3-yl)-5-methyl-2-(1-methyl-1H-imidazol-2-yl)-N-(pyrazin-2-yl)pyrrolo[2,1-f][1,2,4]triazin-4-amine]	H* (H* ≥ 100% activation)
	> 30	Cc1cc(Nc2nc(-c3nccn3C)nn3cc(-c4ccn(C)n4)c(C)c23)n[nH]1 [Compound 255, 5-Methyl-2-(1-methyl-1H-imidazol-2-yl)-6-(1-methyl-1H-pyrazol-3-yl)-N-(5-methyl-1H-pyrazol-3-yl)pyrrolo[2,1-f][1,2,4]triazin-4-amine]	
	10 to 30	Cc1[nH]nc(Nc2nc(-c3nccn3C)nn3cc(-c4ccn(C)n4)c(C)c23)c1C [Compound 267, N-(4,5-Dimethyl-1H-pyrazol-3-yl)-5-methyl-2-(1-methyl-1H-imidazol-2-yl)-6-(1-methyl-1H-pyrazol-3-yl)pyrrolo[2,1-f][1,2,4]triazin-4-amine]	
	< 10	COc1cc(Nc2nc(-c3nccn3C)nn3cc(-c4ccn(C)n4)c(C)c23)n[nH]1 [Compound 252, N-(5-Methoxy-1H-pyrazol-3-yl)-5-methyl-2-(1-methyl-1H-imidazol-2-yl)-6-(1-methyl-1H-pyrazol-3-yl)pyrrolo[2,1-f][1,2,4]triazin-4-amine]	
	< 10	Cc1c(-c2ccn(C)n2)cn2nc(-c3nccn3C)nc(Nc3cc(-c4ccccn4)[nH]n3)c12 [Compound 265, 5-Methyl-2-(1-methyl-1H-imidazol-2-yl)-6-(1-methyl-1H-pyrazol-3-yl)-N-(5-(pyridin-2-yl)-1H-pyrazol-3-yl)pyrrolo[2,1-f][1,2,4]triazin-4-amine]	
76 to 100	< 10	COc1cc(Nc2nc(-c3nccn3C)nn3cc(-c4ccn(C)n4)c(C)c23)ncn1 [Compound 63, N-(6-Methoxypyrimidin-4-yl)-5-methyl-2-(1-methyl-1H-imidazol-2-yl)-6-(1-methyl-1H-pyrazol-3-yl)pyrrolo[2,1-f][1,2,4]triazin-4-amine]	H* (H* ≥ 100% activation)
